Here are results for ten molecules from ChEMBL document CHEMBL1201862, “PubChem BioAssay data set” (2004).

Some test systems named below: CAKI-1; UACC-257; MDA-N; SNB-19; U-251; OVCAR-3; MDA-MB-231; A549; NCI-H23; PC-3; T47D; NCI/ADR-RES; RPMI-8226; HOP-92; A498; UO-31; TK-10; M14; HCC 2998; HT-29.
Common to all, as to assay: DTP human tumour cell line panel, 48 h

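Dose response: 5 concentrations. Exposure: 48 h. Format: 96-well plates. Endpoint: linear interpolation; highest concentration if not reached. GI50: concentration for 50% inhibition of growth.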 Active and inactive are the calls of the source. Rule as the data show it: active = GI50 up to about 1.1 µM and inactive = higher. Bounds are passed on as bounds.

Usually GI50 stands for the concentration that inhibits growth by half. As to `CCCCCc1cc2c(cc1O)CC[C@@H]1[C@@H]2CC[C@]2(C)[C@@H](O)CC[C@@H]12`, the GI50 was 21.5 µM (inactive) in the experiment on CAKI-1; 21 µM (inactive) with UACC-257; 17.9 µM (inactive) in the experiment on MDA-N; 18.8 µM (inactive) in the experiment with SNB-19; 17.6 µM (inactive) in the experiment on U-251; 14.3 µM (inactive) with OVCAR-3. For the same molecule, the GI50 was 18.4 µM (inactive) in the experiment with MDA-MB-231; 19.3 µM (inactive) in the experiment on A549; 21.3 µM (inactive) in the experiment with NCI-H23; 16.6 µM (inactive) in the experiment with PC-3; 24.5 µM (inactive) in the experiment with T47D; 18.9 µM (inactive) in the experiment on NCI/ADR-RES. The GI50 in the experiment with RPMI-8226 was 19.1 µM (inactive); with HOP-92, 14.3 µM (inactive); in the experiment with A498 it was 21.4 µM (inactive); with UO-31, 13.9 µM (inactive); with TK-10, 16.3 µM (inactive); in the experiment on M14, 14.9 µM (inactive). Besides, the GI50 in the experiment on HCC 2998 is 24.3 µM (inactive); in the experiment with HT-29, 20 µM (inactive).
Turning to `O=C1CCC(CCc2nc3ccccc3[nH]2)(c2ccccc2)C(=O)N1` (stereo not given), the GI50 with CAKI-1, in the experiment with UACC-257, in the experiment with MDA-N, with SNB-19, with U-251 and in the experiment with OVCAR-3 was > 100 µM (inactive) throughout. For the same molecule, the GI50 with MDA-MB-231, in the experiment with A549, in the experiment on NCI-H23, in the experiment with PC-3, in the experiment with T47D and with NCI/ADR-RES was > 100 µM (inactive) each time. For the same molecule, the GI50 with RPMI-8226 is > 100 µM (inactive); in the experiment on HOP-92 it was 83.6 µM (inactive); with A498, > 100 µM (inactive); in the experiment on UO-31, 20.2 µM (inactive); in the experiment with TK-10, > 100 µM (inactive); in the experiment with M14 it was > 100 µM (inactive). In addition, the GI50 in the experiment on HCC 2998 and in the experiment with HT-29 was > 100 µM (inactive) in each case.
Regarding `C#C[C@]1(O)CC[C@H]2[C@@H]3CCC4=C/C(=N/OC(=O)c5cccc6c(=O)c7ccccc7[nH]c56)CC[C@@H]4[C@H]3CC[C@@]21C`, the GI50 was 37.5 µM (inactive) with CAKI-1; 37.2 µM (inactive) in the experiment on UACC-257; 43.2 µM (inactive) with MDA-N; > 100 µM (inactive) with SNB-19; 62.1 µM (inactive) in the experiment on U-251; 64.1 µM (inactive) with OVCAR-3. Also, the GI50 is 51.8 µM (inactive) in the experiment with MDA-MB-231; 64.3 µM (inactive) in the experiment with A549; 40.6 µM (inactive) in the experiment with NCI-H23; 37.5 µM (inactive) in the experiment with PC-3; 29 µM (inactive) with T47D; 58.6 µM (inactive) in the experiment with NCI/ADR-RES. Besides, the GI50 in the experiment with RPMI-8226 was 13.6 µM (inactive); in the experiment with HOP-92, > 100 µM (inactive); with A498 it was > 100 µM (inactive); in the experiment with UO-31, 53.5 µM (inactive); with TK-10, > 100 µM (inactive); with M14, 56.5 µM (inactive). In addition, the GI50 was 50.5 µM (inactive) in the experiment on HCC 2998 and 52.5 µM (inactive) in the experiment on HT-29.
For the molecule `O=C(O)c1cc2c(cc1CC(Cc1ccc3c(c1)CCCC3)C(=O)O)CCCC2` (stereo not given), the GI50 in the experiment on CAKI-1 is > 100 µM (inactive); in the experiment with UACC-257, 44.6 µM (inactive); in the experiment with MDA-N, > 100 µM (inactive); with SNB-19, 60 µM (inactive); in the experiment with U-251, > 100 µM (inactive); with OVCAR-3 it was > 100 µM (inactive). In addition, the GI50 in the experiment with MDA-MB-231 was > 100 µM (inactive); with A549, > 100 µM (inactive); in the experiment on NCI-H23 it was > 100 µM (inactive); in the experiment with PC-3, > 100 µM (inactive); with T47D, 88.1 µM (inactive); in the experiment with NCI/ADR-RES, 32.8 µM (inactive). Besides, the GI50 is 63.2 µM (inactive) in the experiment on RPMI-8226; 83 µM (inactive) with HOP-92; > 100 µM (inactive) in the experiment with A498; > 100 µM (inactive) in the experiment with UO-31; > 100 µM (inactive) in the experiment with TK-10; > 100 µM (inactive) in the experiment on M14. In addition, the GI50 with HCC 2998 is 32.9 µM (inactive); in the experiment on HT-29 it was > 100 µM (inactive).
Consider `COc1cc(/C=C2\C[C@H]3[C@@H]4CC=C5C[C@@H](O)CC[C@]5(C)[C@H]4CC[C@]3(C)C2=O)cc(OC)c1OC`, for which the GI50 was 36.9 µM (inactive) with CAKI-1; 29.2 µM (inactive) in the experiment with UACC-257; 29.1 µM (inactive) in the experiment on MDA-N; 27.7 µM (inactive) in the experiment with SNB-19; 32.1 µM (inactive) in the experiment with U-251; 26.2 µM (inactive) in the experiment with OVCAR-3. For the same molecule, the GI50 was 26.4 µM (inactive) in the experiment with MDA-MB-231; 13.2 µM (inactive) in the experiment on A549; 35.3 µM (inactive) in the experiment on NCI-H23; 28.1 µM (inactive) with PC-3; 12.6 µM (inactive) with T47D; 27.5 µM (inactive) in the experiment with NCI/ADR-RES. Also, the GI50 is 6.98 µM (inactive) in the experiment on RPMI-8226; 30.3 µM (inactive) in the experiment with HOP-92; 51.6 µM (inactive) in the experiment on A498; 17.5 µM (inactive) in the experiment with UO-31; 37.2 µM (inactive) in the experiment on TK-10; 24.4 µM (inactive) with M14. Also, the results for the GI50 in the experiment with HCC 2998 and with HT-29 were 27.6 µM (inactive) and 19.9 µM (inactive), respectively.
For the molecule `O=[N+]([O-])c1cc(/C=N/C23CC4CC(CC(C4)C2)C3)ccc1Cl`, the GI50 with CAKI-1 was 6.71 µM (inactive); with UACC-257, 20.7 µM (inactive); in the experiment on MDA-N, 8.02 µM (inactive); in the experiment on SNB-19, 28.6 µM (inactive); in the experiment on U-251, 18.7 µM (inactive); in the experiment on OVCAR-3 it was 17.9 µM (inactive). For the same molecule, the GI50 was 11.7 µM (inactive) in the experiment with MDA-MB-231; > 100 µM (inactive) in the experiment with A549; 19.1 µM (inactive) in the experiment on NCI-H23; 19.8 µM (inactive) in the experiment with PC-3; 18.2 µM (inactive) in the experiment with T47D; 26.3 µM (inactive) with NCI/ADR-RES. For the same molecule, the GI50 in the experiment with RPMI-8226 was 4.31 µM (inactive); with HOP-92 it was 34.5 µM (inactive); in the experiment on A498 it was > 100 µM (inactive); in the experiment on UO-31, 7.52 µM (inactive); with TK-10, 29.7 µM (inactive); in the experiment on M14 it was 12.3 µM (inactive). Further, the figures for the GI50 in the experiment on HCC 2998 and in the experiment with HT-29 were 30.5 µM (inactive) and 19.1 µM (inactive), respectively.
In the case of `O=c1cc(-c2ccccc2)oc2c1ccc1nc3ccccc3c(O)c12`, the GI50 in the experiment with CAKI-1 is 60.7 µM (inactive); in the experiment on UACC-257, > 100 µM (inactive); in the experiment with MDA-N, > 100 µM (inactive); in the experiment with SNB-19, > 100 µM (inactive); in the experiment on U-251, 57.3 µM (inactive); in the experiment on OVCAR-3, 79.1 µM (inactive). Moreover, the GI50 with MDA-MB-231 was > 100 µM (inactive); with A549 it was 45.1 µM (inactive); in the experiment with NCI-H23, 89.1 µM (inactive); in the experiment with PC-3, > 100 µM (inactive); in the experiment on T47D, 40.8 µM (inactive); with NCI/ADR-RES it was 42.4 µM (inactive). For the same molecule, the GI50 with RPMI-8226 was 51.1 µM (inactive); in the experiment with HOP-92, > 100 µM (inactive); in the experiment with A498, 27.5 µM (inactive); with UO-31 it was 80.2 µM (inactive); in the experiment on TK-10, 60.1 µM (inactive); with M14 it was > 100 µM (inactive). Also, the values for the GI50 in the experiment with HCC 2998 and in the experiment on HT-29 were 62.8 µM (inactive) and > 100 µM (inactive), respectively.
With `Nc1ccn(CC(O)c2cc3ccccc3[nH]2)c(=O)n1` (stereo not given), the GI50 in the experiment with CAKI-1, with UACC-257, in the experiment on MDA-N, in the experiment with SNB-19, in the experiment with U-251 and in the experiment with OVCAR-3 was > 100 µM (inactive) in each case. Further, the GI50 with MDA-MB-231, with A549, in the experiment on NCI-H23, in the experiment on PC-3, with T47D and in the experiment with NCI/ADR-RES was > 100 µM (inactive) in each case. Also, the GI50 in the experiment with RPMI-8226, in the experiment with HOP-92, with A498, with UO-31, with TK-10 and in the experiment on M14 was > 100 µM (inactive) each time. Moreover, the GI50 in the experiment with HCC 2998 and in the experiment on HT-29 was > 100 µM (inactive) throughout.
In the case of `CN1CC[N+](C)=C1c1ccccc1`, the GI50 in the experiment on CAKI-1, in the experiment on UACC-257, with MDA-N, in the experiment on SNB-19, with U-251 and in the experiment with OVCAR-3 was > 100 µM (inactive) in each case. Also, the GI50 with MDA-MB-231, with A549, in the experiment on NCI-H23, in the experiment on PC-3, in the experiment with T47D and in the experiment on NCI/ADR-RES was > 100 µM (inactive) each time. Also, the GI50 with RPMI-8226, with HOP-92, with A498, in the experiment on UO-31, in the experiment on TK-10 and with M14 was > 100 µM (inactive) each time. For the same molecule, the GI50 in the experiment with HCC 2998 and in the experiment on HT-29 was > 100 µM (inactive) throughout.
Turning to `N=C1OC(c2c[nH]c3ccc(OCc4ccccc4)cc23)C(O)=C1O` (stereo not given), the GI50 with CAKI-1, with UACC-257, in the experiment with MDA-N, in the experiment with SNB-19, with U-251 and with OVCAR-3 was > 100 µM (inactive) in each case. Besides, the GI50 in the experiment on MDA-MB-231 is 74.5 µM (inactive); in the experiment with A549, > 100 µM (inactive); with NCI-H23, > 100 µM (inactive); with PC-3 it was > 100 µM (inactive); with T47D, > 100 µM (inactive); with NCI/ADR-RES, > 100 µM (inactive). Also, the GI50 with RPMI-8226 is > 100 µM (inactive); with HOP-92, > 100 µM (inactive); with A498, 59.2 µM (inactive); in the experiment on UO-31 it was > 100 µM (inactive); with TK-10, > 100 µM (inactive); with M14, > 100 µM (inactive). Besides, the figures for the GI50 in the experiment on HCC 2998 and in the experiment on HT-29 were 0.951 µM (active) and > 100 µM (inactive), respectively.
